Experimental data as given in patent US20040242591A1, “Oxazolidinone derivatives as pontential antimicrobials” (priority 2001, published 2004).

Assays:
[1] = system: S.aureus ATCC 25923; assay: MIC by agar incorporation method, S.aureus 25923; assay type: cell-based, Staphylococus aureus; parameters: unit not given here; settings: Mueller Hinton agar, 10^4 CFU/spot, 18 hours
[2] = system: MRSA 15187; assay: MIC by agar incorporation method, MRSA 15187; assay type: cell-based, Methicillin Resistant Staphylococcus aureus; parameters: unit not given here; settings: Mueller Hinton agar, 10^4 CFU/spot, 24 hours
Description: 2) MRSA 15187—Methicillin Resistant Staphylococcus aureus

[3] = system: MRSA 562; assay: MIC by agar incorporation method, MRSA 562; assay type: cell-based, Methicillin Resistant Staphylococcus aureus; parameters: unit not given here; settings: Mueller Hinton agar, 10^4 CFU/spot, 24 hours
[4] = system: MRSA 33; assay: MIC by agar incorporation method, MRSA 33; assay type: cell-based, Methicillin Resistant Staphylococcus aureus; parameters: unit not given here; settings: Mueller Hinton agar, 10^4 CFU/spot, 24 hours
[5] = system: Ent. faecalis ATCC 29212; assay: MIC by agar incorporation method, E.faecalis 29212; assay type: cell-based, Enterococcus faecalis; parameters: unit not given here; settings: Mueller Hinton agar, 10^4 CFU/spot, 18 hours
Description: 3) Ent. faecalis ATCC 29212—Enterococcus faecalis ATCC 29212

[6] = system: VRE 6A; assay: MIC by agar incorporation method, VRE 6A; assay type: cell-based, Enterococcus faecium; parameters: unit not given here; settings: Mueller Hinton agar, 10^4 CFU/spot, 18 hours
Description: 4) Ent. faecium […]—Enterococcus faecium 6A Van®, Cipro®

[7] = system: Strep.pyog. ATCC 19615; assay: MIC by agar incorporation method, S.pyogenes 19615; assay type: cell-based, Streptococcus pyogenes; parameters: unit not given here; settings: Mueller Hinton agar, 10^4 CFU/spot, 18 hours
Description: 6) Strep.pyog. ATCC 19615—Streptococcus pyogenes

[8] = system: Strep. pne. ATCC 6303; assay: MIC by agar incorporation method, S. pneum 6303; assay type: cell-based, Streptococcus pneumoniae; settings: Mueller Hinton agar, 10^4 CFU/spot, 18 hours
Description: 5) Strep. pne. ATCC 6303—Streptococcus pneumoniae ATCC 6303

[9] = system: S. pneum AB 34; assay: MIC by agar incorporation method, S. pneum AB 34; assay type: cell-based, Streptococcus pneumoniae; parameters: unit not given here; settings: Mueller Hinton agar, 10^4 CFU/spot, 18 hours

Row | SMILES | In Vitro (MIC) S.aureus 25923 [1] | In Vitro (MIC) MRSA 15187 [2] | In Vitro (MIC) MRSA 562 [3] | In Vitro (MIC) MRSA 33 [4] | In Vitro (MIC) E.faecalis 29212 [5] | In Vitro (MIC) VRE 6A [6] | In Vitro (MIC) S.pyogenes 19615 [7] | In Vitro (MIC) S. pneum 6303 [8] [µg/mL] | In Vitro (MIC) S. pneum AB 34 [9]
1 | CC(=O)NC[C@H]1CN(c2ccc(N3CCN(C(=O)c4ccc([N+](=O)[O-])o4)C(C)C3)c(F)c2)C(=O)O1 (stereo partly drawn) [Compound No. 69, (S)-N-[[3-[3-Fluoro-4-[N-1-[3-methyl-4-{2-furoyl-(5-nitro)}]-piperazinyl]phenyl]-2-oxo-5-oxazolidinyl]methyl]acetamide] | 1 | 1 | 0.5 | 1 | 0.5 | 0.5 | 2 | 8 | 8
2 | CC(=O)NC[C@H]1CN(c2ccc(N3CCN(Cc4cc(Br)c([N+](=O)[O-])s4)CC3)c(F)c2)C(=O)O1 [Compound No. 4] | 2 | 1 | 1 | 2 | 2 | 2 | 4 | 4 | 4
3 | CC(=O)NC[C@H]1CN(c2ccc(N3CCN(Cc4cc([N+](=O)[O-])cs4)CC3)c(F)c2)C(=O)O1 [Compound No. 14, (S)-N-[[3-[3-Fluoro-4-[N-1-[4-{2-thiophen-(4-nitro-)methyl-}]piperazinyl]phenyl]-2-oxo-5-oxazolidinyl]methyl]acetamide] | 0.25 | 0.25 | 0.25 | 0.25 | 4 | 2 | 0.5 | 2 | 1
4 | CC(=O)NC[C@H]1CN(c2ccc(N3CCN(C(=O)c4ccc([N+](=O)[O-])o4)CC3)c(F)c2)C(=O)O1 [Compound No. 39, (S)-N-[[3-[3-Fluoro-4-[N-1-[4-{2-Furoyl-(5-nitro)acylic}]piperazinyl]phenyl]-2-oxo-5-oxazolidinyl]methyl]-acetamide] | 0.5 | 0.5 | 0.25 | 0.25 | 0.5 | <0.125 | <0.125 | 0.5 | 4
5 | O=C(NC[C@H]1CN(c2ccc(N3CCN(Cc4ccc([N+](=O)[O-])o4)CC3)c(F)c2)C(=O)O1)C(F)F [Compound No. 45, (S)-N-[[3-[3-Fluoro-4-[N-1-[4-{2-furyl(5-nitro)methyl}]piperazinyl]phenyl]-2-oxo-5-oxazolidinyl]methyl]-difluoroacetamide] | 2 | 1 | 2 | 2 | 2 | 2 | 0.5 | 0.5 | 2
6 | O=C(CCl)NC[C@H]1CN(c2ccc(N3CCN(Cc4ccc([N+](=O)[O-])s4)CC3)c(F)c2)C(=O)O1 [Compound No. 47, (S)-N-[[3-[3-Fluoro-4[N-1[4-[2-thiophenyl-(5-nitro)methyl}]piperazinyl]-phenyl]-2-oxo-5-oxazolidinyl]methyl]monochloroacetamide] | 4 | 4 | 4 | 4 | 4 | 4 | 1 | 2 | 4
7 | CC(=O)NC[C@H]1CN(c2ccc(N3CCC(N(C)C(=O)c4ccc([N+](=O)[O-])o4)C(C)C3)c(F)c2)C(=O)O1 (stereo partly drawn) [Compound No. 74, (S)-N-[[3-[3-Fluoro-4-[[3-methyl-4-{N-methyl-2-furoyl-(5-nitro)}]-aminopiperidine-1-y]phenyl]-2-oxo-5-oxazolidinyl]methyl]acetamide] | <0.5 | <0.5 | <0.5 | 1 | 1 | 1 | 8 | 8 | 8
8 | CC(=O)NC[C@H]1CN(c2ccc(N3CCN(C(=O)c4ccc([N+](=O)[O-])s4)C(C)C3)c(F)c2)C(=O)O1 (stereo partly drawn) [Compound No. 70, (S)-N-[[3-[3-Fluoro-4-[N-1-[3-methyl-4-{2-thienoyl-(5-nitro)}]-piperazinyl]phenyl]-2-oxo-5-oxazolidinyl]methyl]acetamide] | <0.25 | 0.5 | <0.25 | <0.25 | 2 | 1 | <0.25 | 4 | 4
9 | CC(=O)NC[C@H]1CN(c2ccc(N3C(C)CN(Cc4ccc([N+](=O)[O-])o4)CC3C)c(F)c2)C(=O)O1 (stereo partly drawn) [Compound No. 63, (S)-N-[[3-[3-Fluoro-4-[N-1-[2,6-dimethyl-4-{2-furyl-(5-nitro)methyl-}]-piperazinyl]phenyl]-2-oxo-5-oxazolidinyl]methyl]acetamide] | 16 | 8 | 8 | 8 | 8 | 8 | 16 | 16 | 16
10 | CC(=O)NC[C@H]1CN(c2ccc(N3CCC(N(C)C(=O)c4ccc([N+](=O)[O-])o4)C3)c(F)c2)C(=O)O1 (stereo partly drawn) [Compound No. 92] | 1 | 0.5 | <0.25 | 0.5 | <0.25 | <0.25 | 1 | 1 | 1
11 | O=C(CCl)NC[C@H]1CN(c2ccc(N3CCN(Cc4ccc([N+](=O)[O-])o4)CC3)c(F)c2)C(=O)O1 [Compound No. 46] | 2 | 2 | 2 | 2 | 2 | 2 | 0.5 | 0.5 | 1
12 | CC(=O)NC[C@H]1CN(c2ccc(N3CCC(N(C)Cc4ccc([N+](=O)[O-])s4)C3)c(F)c2)C(=O)O1 (stereo partly drawn) [Compound No. 90, (S)-N-[[3-[3-Fluoro-4-[N-1,3-[N-methyl[N-{2-thiophenyl(5-nitro)methyl}]aminopyrodinyl]phenyl]]-2-oxo-5-oxazolidinyl]methyl]acetamide] | 4 | 2 | 2 | 4 | 4 | 4 | 2 | 4 | 4
